One assay deals with T1, p52 (Homo sapiens, UniProt Q00653).
T1 sequence (Q00653 1-454 limits assumed): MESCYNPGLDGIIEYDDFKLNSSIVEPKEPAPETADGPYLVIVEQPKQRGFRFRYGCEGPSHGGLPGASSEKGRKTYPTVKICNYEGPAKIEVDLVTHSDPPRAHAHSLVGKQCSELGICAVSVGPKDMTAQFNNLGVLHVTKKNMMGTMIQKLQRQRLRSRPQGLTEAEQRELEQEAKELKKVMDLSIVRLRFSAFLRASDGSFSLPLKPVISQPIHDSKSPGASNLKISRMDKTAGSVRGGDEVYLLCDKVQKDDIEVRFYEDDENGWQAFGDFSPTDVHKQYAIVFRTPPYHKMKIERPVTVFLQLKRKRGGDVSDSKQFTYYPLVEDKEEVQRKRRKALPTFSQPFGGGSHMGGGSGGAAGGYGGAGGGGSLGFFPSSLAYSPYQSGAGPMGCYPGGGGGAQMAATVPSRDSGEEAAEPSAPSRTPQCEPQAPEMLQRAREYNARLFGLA
Kind of assay: DSE-FRET p52–DNA binding inhibition. The arrangement: p52 Retest % Inhibition Run2 / p52 Retest % Inhibition Avg. / Kinetic assay p52 Inhibition % ΔRFU(60 min-0 min) / p52 HTS % Inhibition / p52 Retest % Inhibition Run1: dose or concentration left out as unconfirmed. Conditions: for Hit Judgement of: p52: retest of known drugs, 1 = judged hit. In kind it is biochemical.

The target in the next assay is RelA (Homo sapiens, UniProt Q04206). Kind of assay: DSE-FRET RelA–DNA binding inhibition. The conditions noted are these: for Hit Judgement of: RelA: retest of known drugs, 1 = judged hit. Set-up: Kinetic assay RelA Inhibition % ΔRFU(60 min-0 min) / RelA HTS % Inhibition / RelA Retest % Inhibition Run1 / RelA Retest % Inhibition Run2 / RelA Retest % Inhibition Avg. / Kinetic assay RelA % Inhibition ΔRFU(60 min-0 min): dose or concentration left out as unconfirmed. In kind it is biochemical.
Chain of RelA (Q04206 19-306 limits assumed): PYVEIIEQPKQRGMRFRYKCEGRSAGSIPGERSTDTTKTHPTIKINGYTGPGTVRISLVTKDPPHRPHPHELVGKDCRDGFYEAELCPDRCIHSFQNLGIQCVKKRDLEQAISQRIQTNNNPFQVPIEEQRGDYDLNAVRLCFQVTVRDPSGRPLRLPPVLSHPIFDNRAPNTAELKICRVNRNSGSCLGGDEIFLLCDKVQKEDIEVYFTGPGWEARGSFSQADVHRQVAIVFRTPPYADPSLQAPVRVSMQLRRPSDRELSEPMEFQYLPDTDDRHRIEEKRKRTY

Setting [1] is: HTS, known drugs, 10 µM, read-out: p52 HTS % Inhibition @ 10 µM.
[2] abbreviates: kinetic assay, 60 min-0 min, 10 µM, read-out: Kinetic assay @ 10 µM p52 % Inhibition ΔRFU(60 min-0 min).
The mark [3] stands for this setting: retest, Run1, 10 µM, read-out: p52 Retest % Inhibition @ 10 µM Run1.
Setting [4] is: retest, Run2, 10 µM, read-out: p52 Retest % Inhibition @ 10 µM Run2.
Setting [5] is: retest, average of Run1 and Run2, 10 µM, read-out: p52 Retest % Inhibition @ 10 µM Avg.
[6] abbreviates: HTS, known drugs, 10 µM, read-out: RelA HTS % Inhibition @ 10 µM.
Setting [7] is: kinetic assay, 60 min-0 min, 10 µM, read-out: Kinetic assay @ 10 µM RelA % Inhibition ΔRFU(60 min-0 min).
Where [8] appears, read: retest, Run1, 10 µM, read-out: RelA Retest % Inhibition @ 10 µM Run1.
Setting [9] is: retest, Run2, 10 µM, read-out: RelA Retest % Inhibition @ 10 µM Run2.
The mark [10] stands for this setting: retest, average of Run1 and Run2, 10 µM, read-out: RelA Retest % Inhibition @ 10 µM Avg.
Setting [11] is: Retest average of Run1 and Run2.

Where “and” joins values, the source holds several entries; their conditions need not be identical. Equal entries are not always repeated. Structures can show the parent of a compound that is named as a salt. Where two headings read alike, the source gives them in different places.

The values that follow come from paper PMC7734590, “Identification of a Selective RelA Inhibitor Based on DSE-FRET Screening Methods” (International Journal of Molecular Sciences, 2020).

Method for p52: Plate-based (384 scale) DNA-binding experiments were carried out with 0.1 µL of 2 mM or 1 mg/mL compound, 2 µL of 80 nM NF-D1 (consisting of NF-01F and NF-14D), 1 µL of 20 ng/µL poly dI-dC, and 6.9 µL of 3.2 pmol protein in binding buffer (10 mM 4-(2-hydroxyethyl)-1-piperazineethanesulfonic acid (HEPES)–NaOH pH 7.9, 50 mM KCl, 0.1 mM ethylenediaminetetraacetic acid (EDTA), 2.5 mM dithiothreitol (DTT), 10% glycerol, and 0.05% Nonidet P40). The plates were incubated for 30 min at room temperature, after which 10 µL of NF-D2 (consisting of NF-02 and NF-13) was added. The plates were centrifuged at 1000 rpm for 30 s, followed by shaking for 30 s using a plate shaker (Biotec). Fluorescence was measured at 528 nm, after excitation at 485 nm, using a multiplate reader (Biotec) over a period of 60 min.

As to `CCN(CC)CCCC(C)Nc1c2ccc(Cl)cc2nc2ccc(OC)cc12` (stereo not shown) [Quinacrine dihydrochloride dihydrate], the “Kinetic assay p52 % Inhibition ΔRFU(60 min-0 min)” value on p52 (kinetic assay, 60 min-0 min) is recorded as -17%. Also, the “Kinetic assay RelA % Inhibition ΔRFU(60 min-0 min)” value at RelA (kinetic assay, 60 min-0 min) is given as -17%.

Consider `Cc1cc(-c2ccc(/N=N/c3ccc4c(S(=O)(=O)O)cc(S(=O)(=O)O)c(N)c4c3O)c(C)c2)ccc1/N=N/c1ccc2c(S(=O)(=O)O)cc(S(=O)(=O)O)c(N)c2c1O` [EVANS BLUE], for which the inhibition at 10 µM at p52 (setting [1]) stood at 24%; on p52 (setting [2]) it was 2.44%; on p52 (setting [3]), 62.3%; at p52 (setting [4]) it was 35.8%; on p52 (setting [5]) it was 49%; on RelA (setting [6]) it was 78.1%. Moreover, the inhibition at 10 µM turned out to be 4.59% on RelA (setting [7]), 70.4% on RelA (setting [8]), 77.2% on RelA (setting [9]) and 73.8% at RelA (setting [10]).

On to `COc1cc2c(cc1OC)-c1cc3nc4ccccc4nc3n1C(C)(C)C2` [YM 90709], for which the “Kinetic assay p52 % Inhibition ΔRFU(60 min-0 min)” value at p52 (kinetic assay, 60 min-0 min) was -1.43%. For the same compound, at RelA (kinetic assay, 60 min-0 min), the “Kinetic assay RelA % Inhibition ΔRFU(60 min-0 min)” value is -3.67%.

As for `COC(=O)[C@@H]1c2cc3c(c(O)c2[C@@H](O[C@@H]2O[C@@H](C)[C@H](OC)[C@@](C)(OC)[C@H]2OC)C[C@]1(C)O)C(=O)c1c(O)cc2c(c1C3=O)O[C@@H]1O[C@@]2(C)[C@H](O)[C@@H](N(C)C)[C@@H]1O` [Nogalamycin], the inhibition at 5 µg/mL was 127% at p52 (HTS, 5 µg/mL, NPDepo hits, read-out: p52 HTS % Inhibition @ 5 µg/mL); 132% on p52 (Retest Run1, 5 µg/mL, read-out: p52 Retest % Inhibition @ 5 µg/mL Run1); 145% at p52 (Retest Run2, 5 µg/mL, read-out: p52 Retest % Inhibition @ 5 µg/mL Run2); 139% on p52 (Retest average of Run1 and Run2, 5 µg/mL, read-out: p52 Retest % Inhibition @ 5 µg/mL Avg.); -13% at p52 (kinetic assay, 5 µg/mL, ΔRFU 60 min-0 min, read-out: Kinetic assay @ 5 µg/mL p52 Inhibition % ΔRFU(60 min-0 min)); 128% on RelA (HTS, 5 µg/mL, NPDepo hits, read-out: RelA HTS % Inhibition @ 5 µg/mL). Also, the inhibition at 5 µg/mL was 138% at RelA (Retest Run1, 5 µg/mL, read-out: RelA Retest % Inhibition @ 5 µg/mL Run1); 146% on RelA (Retest Run2, 5 µg/mL, read-out: RelA Retest % Inhibition @ 5 µg/mL Run2); 142% at RelA (Retest average of Run1 and Run2, 5 µg/mL, read-out: RelA Retest % Inhibition @ 5 µg/mL Avg.); -20% on RelA (kinetic assay, 5 µg/mL, ΔRFU 60 min-0 min, read-out: Kinetic assay @ 5 µg/mL RelA Inhibition % ΔRFU(60 min-0 min)).

For the compound `O=C1C(Cl)=C(NCCN2CCOCC2)C(=O)c2ncccc21` [NSC 663284], the “p52 HTS % Inhibition” value at p52 (HTS, known drugs) was found to be 39.5%. The “p52 Retest % Inhibition Run1” value on p52 (Retest Run1) stood at 24.9%. The “p52 Retest % Inhibition Run2” value on p52 (Retest Run2) turned out to be 28.6%. In addition, on p52 (setting [11]), the “p52 Retest % Inhibition Avg.” value is recorded as 26.7%. The “Kinetic assay p52 % Inhibition ΔRFU(60 min-0 min)” value on p52 (kinetic assay, 60 min-0 min) was 1.64%. Further, the “Hit Judgement of: p52” value on p52 was determined as 1. Further, the “RelA HTS % Inhibition” value on RelA (HTS, known drugs) turned out to be 37.5%. The “RelA Retest % Inhibition Run1” value at RelA (Retest Run1) is 37.2%. Also, the “RelA Retest % Inhibition Run2” value on RelA (Retest Run2) is 41.8%. In addition, at RelA (setting [11]), the “RelA Retest % Inhibition Avg.” value came to 39.5%. Moreover, the “Kinetic assay RelA % Inhibition ΔRFU(60 min-0 min)” value on RelA (kinetic assay, 60 min-0 min) is given as 9%. Besides, on RelA, the “Hit Judgement of: RelA” value was 1.

`Cc1ccc(C(=O)Nc2ccc(S(=O)(=O)O)c3cc(S(=O)(=O)O)cc(S(=O)(=O)O)c23)cc1NC(=O)c1cccc(NC(=O)Nc2cccc(C(=O)Nc3cc(C(=O)Nc4ccc(S(=O)(=O)O)c5cc(S(=O)(=O)O)cc(S(=O)(=O)O)c45)ccc3C)c2)c1` [Suramin, reference compound]: the “p52–DNA binding inhibition at 50 µM” value at p52 (96-well plates, 50 µM) was “inhibited both RelA–DNA and p52–DNA binding”. Moreover, the “suppression of p52–DNA binding” value on p52 (HTS, 10 µM or 5 µg/mL) is “less than 10%”.

As to `CC(C)(O/N=C(\C(=O)N[C@@H]1C(=O)N2C(C(=O)[O-])=C(C[n+]3ccccc3)CS[C@H]12)c1csc(N)n1)C(=O)O` [CEFTAZIDIME], the inhibition at 10 µM came out at 98% at p52 (setting [1]); 92% on p52 (setting [2]); 78.9% on p52 (setting [3]); 110% at p52 (setting [4]); 94.2% at p52 (setting [5]); 96.9% at RelA (setting [6]). In addition, the inhibition at 10 µM was 94% at RelA (setting [7]), 91.9% on RelA (setting [8]), 106% on RelA (setting [9]) and 98.9% on RelA (setting [10]). At p52, the “Hit Judgement of: p52” value was found to be 1. For the same compound, the “Hit Judgement of: RelA” value on RelA was found to be 1.

On to `OCCN(CCO)c1nc(N2CCCCC2)c2nc(N(CCO)CCO)nc(N3CCCCC3)c2n1` [Dipyridamole], for which the “Kinetic assay p52 % Inhibition ΔRFU(60 min-0 min)” value on p52 (kinetic assay, 60 min-0 min) is -0.806% and -5%. Further, the “Kinetic assay RelA % Inhibition ΔRFU(60 min-0 min)” value on RelA (kinetic assay, 60 min-0 min) is -4.24% and -5.31%.
